Among the test systems are UO-31 renal; HCT-116 colon; SK-MEL-5 melanoma; OVCAR-5 ovarian; MOLT-4 leukemia; TK-10 renal; 786-0 renal; OVCAR-8 ovarian; HL-60(TB) leukemia; PC-3 prostate; DU-145 prostate.
Holding throughout (assay): NCI tumour cell line growth inhibition, 48 h

SMILES strings stand for the structures.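 Compound exposure: 48 hours, 5 concentrations, 96-well plates. Definition used: TGI = concentration required for complete inhibition of growth.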

As for `CC(C)(C)N(Cc1ccc2c(c1)OCO2)C(=O)/C=C\S(=O)c1ccccc1` (stereo not drawn), the TGI with UO-31 renal was 7.93 µM; with HCT-116 colon, 7.84 µM; with SK-MEL-5 melanoma it was 12.9 µM; in the test with OVCAR-5 ovarian, 25.1 µM; in the test on MOLT-4 leukemia, > 45.4 µM; in the test on TK-10 renal it was 17 µM. Besides, the TGI in the test with 786-0 renal was 6.07 µM; with OVCAR-8 ovarian it was 6.44 µM; in the test on HL-60(TB) leukemia it was 7.6 µM; in the test with PC-3 prostate, 9.71 µM; in the test on DU-145 prostate it was 10.2 µM.
In the case of `CN1CN(c2ccccc2)C2(CCN(CCCSc3ccccc3NC(=O)/C=C/c3ccccc3)CC2)C1=O`, the TGI was 14.1 µM with UO-31 renal; 8.76 µM with HCT-116 colon; 9.18 µM in the test on SK-MEL-5 melanoma; > 60.5 µM in the test with OVCAR-5 ovarian; 7 µM in the test on MOLT-4 leukemia; 34.4 µM with TK-10 renal. Besides, the TGI worked out at 29.9 µM with 786-0 renal; 32.6 µM in the test with OVCAR-8 ovarian; 23.8 µM in the test on HL-60(TB) leukemia; 23.5 µM in the test on PC-3 prostate; 18.2 µM with DU-145 prostate.
Take `CC1(c2nc3cc(Cl)c(Cl)cc3[nH]2)CCC(CO)C(C)(C)O1` (stereo not drawn): the TGI in the test on UO-31 renal is 39.9 µM; in the test on HCT-116 colon, > 100 µM; with SK-MEL-5 melanoma it was 27.1 µM; in the test on OVCAR-5 ovarian, > 100 µM; in the test with MOLT-4 leukemia, > 100 µM; in the test on TK-10 renal, > 100 µM. In addition, the TGI with 786-0 renal is > 100 µM; in the test on OVCAR-8 ovarian it was 61.4 µM; in the test with HL-60(TB) leukemia it was 36.7 µM; with PC-3 prostate, 97.3 µM; in the test on DU-145 prostate, > 100 µM.
Regarding `COc1cc(-c2oc3c(OC)c(O)c(OC)c(O)c3c(=O)c2OC)cc(O)c1OC`, the TGI with UO-31 renal is > 100 µM; in the test with HCT-116 colon, > 100 µM; in the test with SK-MEL-5 melanoma, 55.6 µM; in the test with OVCAR-5 ovarian, > 100 µM; in the test on MOLT-4 leukemia, > 100 µM; with TK-10 renal, > 100 µM. Moreover, the TGI is > 100 µM with 786-0 renal; > 100 µM with OVCAR-8 ovarian; 57.9 µM with HL-60(TB) leukemia; > 100 µM in the test on PC-3 prostate; > 100 µM in the test on DU-145 prostate.
On to `O=[N+]([O-])c1ccc(C2=NOC(c3ccccc3F)N2C23CC4CC(CC(C4)C2)C3)cc1` (stereo not drawn), for which the TGI with UO-31 renal, with HCT-116 colon, in the test on SK-MEL-5 melanoma, with OVCAR-5 ovarian, in the test on MOLT-4 leukemia and in the test with TK-10 renal was > 100 µM throughout. For the same molecule, the TGI in the test on 786-0 renal, with OVCAR-8 ovarian, in the test on HL-60(TB) leukemia, in the test on PC-3 prostate and in the test on DU-145 prostate was > 100 µM in each case.
For `S=C(N/N=C(/c1ccccc1)c1ccccn1)Nc1ccccc1Cl`, the TGI came out at 5.96 µM with UO-31 renal; 3.44 µM with HCT-116 colon; 2.63 µM in the test on SK-MEL-5 melanoma; 6.94 µM in the test with OVCAR-5 ovarian; 1.02 µM in the test with MOLT-4 leukemia; 12.6 µM with TK-10 renal. Besides, the TGI with 786-0 renal worked out at 13.1 µM; with OVCAR-8 ovarian, 4.98 µM; in the test with HL-60(TB) leukemia, 0.228 µM; in the test on PC-3 prostate, 13.3 µM; with DU-145 prostate, 17.8 µM.
Consider `CSc1nc(-c2cc3c(c(SC)n2)CCCCC3)cc2c1CCCCC2`, for which the TGI in the test on UO-31 renal, in the test with HCT-116 colon, in the test with SK-MEL-5 melanoma, in the test with OVCAR-5 ovarian, in the test with MOLT-4 leukemia and with TK-10 renal was > 100 µM each time. In addition, the TGI in the test on 786-0 renal, in the test on OVCAR-8 ovarian, with HL-60(TB) leukemia, with PC-3 prostate and in the test with DU-145 prostate was > 100 µM each time.
For the molecule `O=C(/C=C/c1ccc(Cl)cc1)Oc1ccc(/C=C2\CCCCC2=O)cc1`, the TGI in the test on UO-31 renal is > 100 µM; in the test with HCT-116 colon, > 100 µM; in the test with SK-MEL-5 melanoma, > 100 µM; in the test on OVCAR-5 ovarian it was > 100 µM; in the test with MOLT-4 leukemia, 73.9 µM; with TK-10 renal, > 100 µM. Also, the TGI in the test with 786-0 renal, in the test with OVCAR-8 ovarian, in the test on HL-60(TB) leukemia, in the test with PC-3 prostate and in the test with DU-145 prostate was > 100 µM each time.

The values are drawn from PubChem BioAssay (NCI).
